The text below walks through data of BindingDB's records for patent US11787796 (Takeda Pharmaceutical, 2023).

A value given as a limit tells only on which side of the number the result lay.

This experiment has as its target Plasma kallikrein (Homo sapiens, UniProt P03952). The experiment in a line: Inhibitory Activity of Exemplary Compounds Against Plasma Kallikrein. The method, then: Example compounds were evaluated for inhibition of the human activated kallikrein enzyme in two formats of an assay employing a fluorogenic peptide substrate. In one assay format, the concentrations of reagents were as follows: 20 mM Tris pH 7.5, 1 mM EDTA, 150 mM sodium chloride, 0.1% PEG-400, 0.1% Triton X-100, […], 300 uM Pro-Phe-Arg-7-amido-4-methylcoumarin substrate. Prior to reaction initiation with substrate, enzyme and inhibitors were preincubated for 30 min at RT. After initiation with substrate, reactions were incubated for 10 min at RT and fluorescence emission at 460 nm from 380 nm excitation measured with a microplate reader. In another assay format, the concentrations of reagents were as follows: 20 mM Tris pH 7.5, 1 mM EDTA, 150 mM sodium chloride, 0.1% PEG-400, 0.1% Triton X-100, 5 pM activated kallikrein enzyme, 300 uM Pro-Phe-Arg-7-amido-4-methylcoumarin substrate. Prior to reaction initiation with substrate, enzyme and inhibitors were preincubated for 30 min at RT. After initiation with substrate, reactions were incubated for 18 h at RT and fluorescence emission at 460 nm from 380 nm excitation measured with a microplate reader.

Sequence of Plasma kallikrein (P03952 20-390 limits assumed): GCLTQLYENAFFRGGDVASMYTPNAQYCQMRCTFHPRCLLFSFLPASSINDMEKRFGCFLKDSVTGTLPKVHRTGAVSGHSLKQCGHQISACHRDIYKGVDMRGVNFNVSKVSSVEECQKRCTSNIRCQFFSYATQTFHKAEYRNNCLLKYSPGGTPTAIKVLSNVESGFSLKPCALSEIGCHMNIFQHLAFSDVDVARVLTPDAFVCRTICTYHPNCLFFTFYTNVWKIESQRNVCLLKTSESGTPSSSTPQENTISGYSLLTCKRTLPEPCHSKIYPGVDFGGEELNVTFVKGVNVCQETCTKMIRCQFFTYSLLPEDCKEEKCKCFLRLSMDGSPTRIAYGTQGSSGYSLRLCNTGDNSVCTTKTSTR
Sequence of Plasma kallikrein (P03952 391-638 limits assumed): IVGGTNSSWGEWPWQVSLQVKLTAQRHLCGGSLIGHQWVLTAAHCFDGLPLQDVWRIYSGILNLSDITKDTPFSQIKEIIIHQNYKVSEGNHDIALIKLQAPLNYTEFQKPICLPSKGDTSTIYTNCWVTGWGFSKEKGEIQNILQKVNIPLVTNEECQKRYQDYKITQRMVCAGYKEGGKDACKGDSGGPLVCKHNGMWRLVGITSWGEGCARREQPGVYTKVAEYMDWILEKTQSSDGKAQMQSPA

The term EC50 denotes the concentration needed to bring the measured effect to its halfway point. A low value points to an effect from little substance. In turn, `COc1ccc(-n2cnnn2)c(CNC(=O)c2nnn(Cc3cn4cc(C5CC5)ccc4n3)n2)c1F` [US11787796, Compound I-28] came in with an EC50 of less than 1 nM.
